Common to all, as to assay type: cell-based
The subject of experiment [1] is Micrococcus luteus DSM1790. The experiment can be described thus: Kirby-Bauer assay, zone of inhibition (agar well). To be noted: M. luteus DSM1790; 10 μL DMSO stock (3.2 or 1.6 mg/mL) in well of soft LB agar, 30 °C, 20 h. As for the experimental part:
The stock solution of massatide A (1) and B (1a) 3.2 mg/mL were prepared in DMSO. 40 μL overnight culture of Micrococcus luteus DSM1790 was added to 20 mL soft Luria-Bertani agar (1% agar), and then poured into a plate. 10 μL tip was used to make two wells on the plate. 10 μL massatide A (1) or B (1a) solution was added in one of the wells, while in the other well, 10 μL DMSO was added as a negative control. The plates were incubated at 30 °C for 20 h to observe the zone of inhibition. Staphylococcus aureus ATCC25923 was also used to observe the inhibition zone using a similar method. The only difference is incubating at 37 °C. Stock solutions of sistertide A1, kebanetide A1 and A2 were 3.2 mg/mL, 1.6 mg/mL and 1.6 mg/mL, respectively. The method to observe the activity of these compounds individually was the same as that of massatide.

For experiment [2], the system named is Micrococcus luteus DSM1790. The experiment can be described thus: microbe, parasite or virus in culture. As for the experimental part: (§1) For MIC determination, Staphylococcus aureus ATCC25923, Bacillus subtilis 168, Micrococcus luteus DSM1790, Enterococcus faecalis OG1RF, Enterococcus faecium MCC2763, Escherichia coli DH5α and Pseudomonas aeruginosa PAO1 were used as indicator strains. Nisin and vancomycin were used as positive controls. A dilution series of massatide A, massatide B, vancomycin (16, 8, 4, 2, 1, 0.5, 0.25, 0.125, 0.0625, 0.0313 μg/mL) and sistertide A1, kebanetide A1, kebanetide A2, nisin (64, 32, 16, 8, 4, 2, 1, 0.5, 0.25, 0.125 μg/mL) were prepared in 96-well plate from 1–10th column. The indicator strains were added to the compound-containing well. The indicator strain culture with no antibiotics was prepared in the 11th column. The 12th column was filled with 200 μL empty MHB medium. The 96-well plate was incubated at 37 °C for 20 h (30 °C for M. luteus and B. subtilis). The OD600 was detected on MULTISKAN Sky (Thermo Scientific) and MIC values were determined. The MIC values of clinical isolates were determined by Sichuan Primed Shines Bio-tech Co., Ltd. (China) following similar protocol. Levofloxacin was used as a positive control.

The next experiment deals with Bacillus subtilis 168. The experiment can be described thus: microbe, parasite or virus in culture. As for the experimental part: as §1
The subject of experiment [3] is Staphylococcus aureus ATCC25923. Put plainly: microbe, parasite or virus in culture. As for the experimental part: as §1
In experiment [4] the test system is Enterococcus faecium MCC2763. Put plainly: microbe, parasite or virus in culture. How it is done: as §1
Experiment [5] relates to Enterococcus faecalis OG1RF. Put plainly: microbe, parasite or virus in culture. The conditions noted are these: 20 h. As for the experimental part: as §1
For a further experiment, the system named is Escherichia coli DH5α. To be noted: 20 h. How it is done:
as §1

In experiment [6] the test system is Pseudomonas aeruginosa PAO1. How it is done: as §1

This note sets out measurements from article PMC11162475, “Rule-based omics mining reveals antimicrobial macrocyclic peptides against drug-resistant clinical isolates” (Nature Communications, 2024).

≈ marks a conversion by molar mass, not a printed value. Read-outs that look alike come from different tables or passages of the source.

Consider `C=C1NC(=O)C(N(C)C)C(C)SC[C@@H](C(=O)N[C@H](C(=O)N[C@@H](C)C(=O)N[C@H](C)C(=O)N[C@@H](C)C(=O)N/C(=C\C)C(=O)N[C@@H](C)C(=O)N[C@H](C)C(=O)N[C@@H](Cc2ccccc2)C(=O)N[C@H](C(=O)N[C@@H](C)C(=O)N[C@H](C)C(=O)N[C@@H](CCC(N)=O)C(=O)N[C@@H](Cc2ccccc2)C(=O)N[C@H](C)C(=O)N[C@@H](C)C(=O)N[C@@H](CCCCN)C(=O)NC2C(=O)N[C@@H](C(C)C)C(=O)N[C@@H](C)C(=O)NCC(=O)NCC(=O)N/C=C\SC2C)C(C)C)[C@@H](C)CC)NC(=O)[C@H](C)NC(=O)[C@@H]2CCCN2C1=O` (stereo partly shown) [kebanetide A2 (5), kebanetide A2], for which the “inhibitory activity (zone of inhibition)” value in experiment [1] was “exhibited growth inhibition”. The MIC is 32 µg/mL (≈ 13.4 µM) in experiment [2] (DSM1790, 20 h); 32 to 64 µg/mL against Bacillus subtilis 168 (168, 20 h); above 64 µg/mL in experiment [3] (ATCC25923, 20 h); 32 µg/mL (≈ 13.4 µM) in experiment [4] (MCC2763, 20 h); 16 µg/mL (≈ 6.72 µM) in experiment [5] (OG1RF).
In the case of kebanetide A1 [Kebanetide A1 (4)], in experiment [1], the “inhibitory activity (zone of inhibition)” value is recorded as “exhibited growth inhibition”. The MIC with Escherichia coli DH5α (Escherichia coli DH5α, dilution series in 96-well plate, MHB, 37 °C, OD600) was above 64 µg/mL; in experiment [6] (Pseudomonas aeruginosa PAO1, dilution series in 96-well plate, MHB, 37 °C, 20 h, OD600), above 64 µg/mL; in experiment [2] (Micrococcus luteus DSM1790, dilution series in 96-well plate, MHB, 30 °C, 20 h, OD600) it was 8 µg/mL; against Bacillus subtilis 168 (Bacillus subtilis 168, dilution series in 96-well plate, MHB, 30 °C, 20 h, OD600) it was 8 µg/mL; in experiment [3] (Staphylococcus aureus ATCC25923, dilution series in 96-well plate, MHB, 37 °C, 20 h, OD600) it was 64 µg/mL; in experiment [4] (Enterococcus faecium MCC2763, dilution series in 96-well plate, MHB, 37 °C, 20 h, OD600), 32 µg/mL. The MIC in experiment [5] (Enterococcus faecalis OG1RF, dilution series in 96-well plate, MHB, 37 °C, OD600) stood at 16 µg/mL.
On to `C=C1NC(=O)C(NC(=O)/C(=C/C)NC(=O)[C@H](CCCNC(=N)N)NC(=O)[C@@H](C)NC(=O)[C@@H](NC(=O)[C@H](C)NC(=O)[C@@H](NC(=O)[C@@H](C)NC(=O)[C@H](C)NC(=O)[C@@H]2CSC(C)C(N(C)C)C(=O)N/C(=C\C)C(=O)N[C@@H](Cc3ccc(O)cc3)C(=O)N[C@@H]([C@@H](C)CC)C(=O)N2)C(C)C)[C@@H](C)CC)CSC[C@@H](C(=O)N[C@H](C)C(=O)N[C@@H](C)C(=O)N[C@@H](C)C(=O)N[C@@H](C)C(=O)N[C@H](C)C(=O)N[C@@H](C)C(=O)N[C@H](C(=O)N[C@H](C)C(=O)NCC(=O)N[C@@H](C)C(=O)NC2C(=O)N[C@@H](Cc3ccc(O)cc3)C(=O)N[C@@H](CCC(=O)O)C(=O)N[C@@H](Cc3c[nH]c4ccccc34)C(=O)N[C@@H]([C@@H](C)O)C(=O)N/C=C\SC2C)[C@@H](C)CC)NC(=O)[C@H](CCCCN)NC(=O)[C@H](C(C)C)NC1=O` (stereo partly shown) [Sistertide A1 (2), sistertide A1], for which, in experiment [1], the “inhibitory activity (zone of inhibition)” value was “did not display significant inhibitory activity”. The MIC was above 64 µg/mL against Escherichia coli DH5α (DH5α); above 64 µg/mL in experiment [6] (PAO1, 20 h); above 64 µg/mL in experiment [2] (DSM1790, 20 h); above 64 µg/mL against Bacillus subtilis 168 (168, 20 h); above 64 µg/mL in experiment [3] (ATCC25923, 20 h); above 64 µg/mL in experiment [4] (MCC2763, 20 h). Also, in experiment [5] (OG1RF), the MIC was above 64 µg/mL.
